Residue numbers refer to the chain shown, from its start. Blank lines part the entries; values can stand above or below the molecule they belong to.
Columns and labels:
[1] = tested on: rat adjuvant arthritis model; assay: Rat adjuvant arthritis model; type: in vivo; details: for Bone destruction score / Bone destruction score (% inhibition): Table 2; for Bone destruction score: soft X-ray of calcaneus, adjuvant-untreated paw, day 21, maximum 5, mean ± standard error, oral comparators; for Bone destruction score (% inhibition) / inhibition of the increase in paw volume, adjuvant-untreated paw: vs solvent group; for inhibition of the increase in paw volume, adjuvant-untreated paw: day 21, oral, 1 mL per 100 g: sodium diclofenac 0.3 mg/mL, methotrexate 0.01 mg/mL, prednisolone 0.3 mg/mL; for inhibition of the increase (decrease) in amount of glycosaminoglycan in urine / inhibition of the increase (decrease) in amount of deoxypyridinoline in urine: urine day 20 to 21, oral comparators vs solvent group; for inhibition of the increase (decrease) in amount of glycosaminoglycan in urine: diclofenac and prednisolone not significant; for inhibition of the increase (decrease) in amount of deoxypyridinoline in urine: methotrexate and prednisolone not significant
Procedure: The rat adjuvant arthritis model was performed in the following manner according to the method of Pearson et al. (Pearson CM. et al., Arthritis Rheum., 5, 654-658, 1962) using Lewis rats (female, 8 weeks old, Japan Charles River).
Mycobacterium butyricum (manufactured by Difco) was suspended in a liquid paraffin (manufactured by Wako Pure Chemical Industries, Ltd.) to a final concentration of 6 mg/mL, and sterilized with a autoclave. The resulting solution was intradermally injected into the rat right hind pad in an amount of 100 μL for sensitization. One group consisted of 8 to 10 rats. Anti-FGF-8 neutralizing antibody KM1334 was dissolved in saline to a final concentration of 2 mg/mL. The solution was intraperitoneally administered to a KM1334 administrated group once a day at a dose of 0.5 mL per 100 g of the body weight for each rat on the sensitization day of the rat adjuvant arthritis model and on days 3, 7, 10, 14 and 17 from the sensitization. To saline administrated group, only saline was intraperitoneally administered instead of the anti-FGF-8 neutralizing antibody KM1334 solution. Further, sodium diclofenac, an antiinflammatory agent, was dissolved in a 0.5 w/v % methyl cellulose solution to a final concentration of 0.3 mg/mL, and the solution was orally administered to a sodium diclofenac administrated group as a positive control once a day at a dose of 1 mL per 100 g of the body weight on days 4, 7 to 11 and 14 to 18 from the adjuvant sensitization day. 50 mg of methotrexate® for injection (manufactured by Wyeth Japan) as a metabolic antagonist was dissolved in a 0.5 w/v % methyl cellulose solution to a final concentration of 0.01 mg/mL, and the solution was administered to a methotrexate administrated group in the same manner as in the sodium diclofenac administrated group. Prednisolone (manufactured by Sigma-Aldrich), a steroidal agent, was suspended in a 0.5 w/v % methyl cellulose solution to a final concentration of 0.3 mg/mL, and the suspension was administered to a prednisolone administrated group in the same manner as in the sodium diclofenac administrated group. Further, a 0.5 w/v % methyl cellulose solution alone was orally administered to a solvent administrated group in the same manner. An untreated group was used, and it was not subjected to sensitization with Mycobacterium butyricum and administration of an agent. The volumes of the adjuvant-treated paw and the adjuvant-untreated paw were measured as time goes by using a device for measuring edemas of rat hind paw (TK-101, manufactured by Unicom).
Using urine collected for 24 hours at day 20 and day 21 after the sensitization, the amounts of glycosaminoglycan, deoxypyridinoline, hydroxyproline and creatinine in urine were measured. The amount of glycosaminoglycan in urine was measured by the DMMB method described in Example 1. The amount of hydroxyproline in urine was measured by the method of Ikeda et al. (Ikeda Shingo et al., Tokyo Eiken Nenpo, 36 277-282, 1985). That is, 0.8 mL of hydrochloric acid for amino acid analysis (manufactured by Kanto Kagaku) was added to 0.8 mL of urine to hydrolyze at 110° C. for 15 hours. To 0.5 mL of the hydrolyzed sample was added 2 mL of a 1.2 mol/L sodium hydroxide solution for neutralization. 1 mL of isopropanol was added to 0.5 mL of the neutralized sample, and 1 ml of an oxidant solution was added. The mixture was stirred well, and allowed to stand at room temperature for 5 minutes. […]

[2] = molecular target: T1, compound 1 as a partial peptide of FGF-8 (Homo sapiens, UniProt P55075); assay: FGF-8 binding activity by BIAcore 2000, immobilized biotin-labeled compound 1; details: antibody 16.7 μg/mL; FGF-8 peptide immobilized 35 RU
T1 construct: 17; made in house; host or cells: chemical synthesis
T1 sequence (P55075 with tags, fused parts or gaps isoform P55075-3 limits assumed): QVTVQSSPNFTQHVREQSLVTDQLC
Procedure: In order to examine the FGF-8 binding activity of the anti-FGF-8 neutralizing CDR-grafted antibodies obtained in 5. of Reference Example 3, the FGF-8 binding activity of the various anti-FGF-8 neutralizing CDR-grafted antibodies was measured and compared through BIAcore 2000 using compound 1 as a partial peptide of FGF-8 with the C terminal labeled with biotin in the following manner. The anti-FGF-8 neutralizing chimeric antibody KM3034 derived from CHO/DG44 cells obtained in 3. (1) of Reference Example 1 was used as a positive control.
HBS-EP was used as a sample diluent and a buffer during measurement. First, Sensor Chip SA (manufactured by BIACORE) was installed, and 5 μL of compound 1 labeled with biotin which had been adjusted to 0.05 μg/mL was added at a flow rate of 5 μL/min. Then, 5 μL of a 10 mmol/L glycine-hydrochloride solution (pH 1.5) was added twice continuously to wash the tip surface. The immobilization amount of the FGF-8 peptide was 35 RU.
60 μL of each of the antibody solutions was added to an FGF-8 peptide immobilized flow cell at a flow rate of 20 μL/min, and the dissociation reaction was then monitored for 3 minutes. After the dissociation reaction, 20 μL of 10 mmol/L glycine-hydrochloride solution (pH 1.5) was added twice continuously to regenerate the chip surface. This cycle was performed on the antibody solution at various concentrations (from 50 to 1.85 μg/mL) to obtain sensor grams at various concentrations. The sensor grams of the respective antibodies were converted to sensor grams of specific reactions by deduceing a sensor gram obtained using the chimeric antibody KM871 to GD3 as a negative control.

FGF-8 = molecular target: T2, FGF-8 (Homo sapiens, UniProt P55075); assay: FGF-8 neutralizing activity: FGF-8-dependent growth of mouse breast cancer cell line SC-3; type: cell-based; details: SC-3 cells, FGF-8 50 ng/mL, WST-1
T2 construct: purchased R & D
T2 sequence (P55075 23-215 isoform P55075-3 limits assumed): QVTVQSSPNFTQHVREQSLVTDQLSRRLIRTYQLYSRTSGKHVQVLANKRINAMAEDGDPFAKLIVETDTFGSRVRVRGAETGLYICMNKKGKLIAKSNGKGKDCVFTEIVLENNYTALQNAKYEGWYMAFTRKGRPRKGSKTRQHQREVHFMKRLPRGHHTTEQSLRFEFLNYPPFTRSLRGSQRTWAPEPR
Procedure: The FGF-8 neutralizing activity of the purified anti-FGF-8 neutralizing chimeric antibody was evaluated by measured the following FGF-8-dependent growth inhibitory effect of mouse breast cancer cell line SC-3 (Tanaka A. et al., Proc. Natl. Acad. Sci. USA, 89, 8928-8932, 1992) described below. That is, SC-3 cells were suspended at a concentration of 3.0×10^4 cells/mL in DMEM:Ham's F12 (1:1) medium [a mixed medium of DMEM medium and Ham's F12 medium (manufactured by Invitrogen) at a ratio of 1:1] containing activated charcoal-treated FBS at a concentration of 2%. The suspension was inoculated on a 96-well plate in an amount of 150 μL (4.5×10^3 cells)/well. After the culturing in a 5% CO2 incubator at 37° C. for 18 hours, the medium was replaced with 100 μL/well of a test medium. The test medium was produced by dissolving 50 ng/mL of FGF-8 (manufactured by R & D) and the anti-FGF-8 neutralizing chimeric antibody at each dilute concentration in DMEM:Ham's F12 (1:1) medium containing 0.1% BSA. The chimeric antibody KM2760 to human chemokine CCR4 described in WO 01/64754 was used as an antibody of a negative control. After the culturing in a 5% CO2 incubator at 37° C. for 48 hours, the medium was replaced with a freshly prepared test medium, and the culturing was further performed for 48 hours. WST-1 Reagent (manufactured by Roche) was added in an amount of 10 μL/well, and the mixture was culturing in a 5% CO2 incubator at 37° C. for 1 hour while being gently stirred. Then, absorbance (OD450,650) was measured. In FIG. 21, the abscissa represents a concentration of an antibody added, and the ordinate represents relative growth (%) to growth when adding 50 ng/mL of FGF-8 alone. The relative growth (%) to growth when adding 50 ng/mL of FGF-8 alone was calculated by the following formula. Relative growth (%) to growth when adding FGF-8={(Absorbance when adding FGF-8 and antibody−Absorbance when not adding FGF-8 and antibody)/(Absorbance when adding FGF-8 alone−Absorbance when not adding FGF-8 and antibody)}×100

binding reaction [resonance signal (RU)] [2]: the highest binding reaction
B3: KM3034: anti-FGF-8 neutralizing human chimeric antibody, VH SEQ ID NO. 5, VL SEQ ID NO. 6, human γ1/κ, CHO/DG44 cell-derived (FERM BP-7836) (antibody, listed as Mus musculus, V domains shown)
VH: QVQLQQSGAEVARPGASVKLSCKASGYTFTDYYLNWVKQRSGQGLEWIGEIDPGSDSIYYNENLEGRATLTADKSSSTAYMQLNSLTSEDSAVYFCARYGYSRYDVRFVYWGQGTLVTVST
VL: DVLMTQTPLSLPVSLGDQASISCRSSQSLVHSNGRTYLEWYLQKPGQSPKVLIYKVSNRISGVPDRFSGSGSGTDFTLKISRVEAEDLGVYFCFQGSHVPYTFGGGTKLEIK

binding reaction [resonance signal (RU)] [2]: the higher binding reaction
B4: HV0LV3-1/CHO: CHO/DG44 cell-derived anti-FGF-8 neutralizing CDR-grafted antibody, VH HV.0, VL LV.3-1 (SEQ ID NO. 44) (antibody, V domains shown)
VH: QVQLVQSGAEVKKPGASVKVSCKASGYTFTDYYLNWVRQAPGQGLEWMGEIDPGSDSIYYNENLEGRVTITADTSTSTAYMELSSLRSEDTAVYYCARYGYSRYDVRFVYWGQGTLVTVSS
VL: B3 VL with L3V, T7S, S14T, L15P, D17E, Q18P, K50Q, L88V, G105Q, L109V
FGF-8 neutralizing activity (SC-3 cell growth inhibitory activity) (FGF-8): the next high FGF-8 neutralizing activity

binding reaction [resonance signal (RU)] [2]: the lower binding reaction
B5: HV0LV4-2/CHO: CHO/DG44 cell-derived anti-FGF-8 neutralizing CDR-grafted antibody, VH HV.0, VL LV.4-2 (SEQ ID NO. 43) (antibody, V domains shown)
VH: B4 VH
VL: B3 VL with L3V, T7S, D17E, Q18P, K50Q, V51L, L88V, G105Q, L109V

binding reaction [resonance signal (RU)] [2]: the highest binding reaction
B6: HV0LV6/CHO: CHO/DG44 cell-derived anti-FGF-8 neutralizing CDR-grafted antibody, VH HV.0 (SEQ ID NO. 18), VL LV.6 (SEQ ID NO. 21) (antibody, V domains shown)
VH: B4 VH
VL: B3 VL with L3V, T7S, D17E, Q18P, L88V, G105Q, L109V
modifications: HV.0, a designed amino acid sequence of VH of an anti-FGF-8 CDR-grafted neutralizing antibody; LV.6, a designed amino acid sequence of VL of an anti-FGF-8 CDR-grafted neutralizing antibody

binding reaction [resonance signal (RU)] [2]: the lower binding reaction
B7: HV0LV3-2/CHO: CHO/DG44 cell-derived anti-FGF-8 neutralizing CDR-grafted antibody, VH HV.0, VL LV.3-2 (SEQ ID NO. 45) (antibody, V domains shown)
VH: B4 VH
VL: B3 VL with V2I, L3V, T7S, D17E, Q18P, K50Q, V51L, L88V, G105Q, L109V

The next lines start with the molecule.

Molecule: CN(Cc1cnc2nc(N)nc(N)c2n1)c1ccc(C(=O)N[C@@H](CCC(=O)O)C(=O)O)cc1 [methotrexate]
Bone destruction score [1]: 0.9 ± 0.4
Bone destruction score (% inhibition) [1]: 80%
inhibition of the increase in paw volume, adjuvant-untreated paw [1]: 90%
inhibition of the increase (decrease) in amount of glycosaminoglycan in urine [1]: 79%
inhibition of the increase (decrease) in amount of deoxypyridinoline in urine [1]: 34%

Molecule: C[C@]12C=CC(=O)C=C1CC[C@@H]1[C@@H]2[C@@H](O)C[C@@]2(C)[C@H]1CC[C@]2(O)C(=O)CO [prednisolone, Prednisolone]
Bone destruction score [1]: 1.8 ± 0.7
Bone destruction score (% inhibition) [1]: 61%
inhibition of the increase in paw volume, adjuvant-untreated paw [1]: 51%
inhibition of the increase (decrease) in amount of glycosaminoglycan in urine [1]: 18%
inhibition of the increase (decrease) in amount of deoxypyridinoline in urine [1]: 38%

B1: HV0LV2-2/CHO: CHO/DG44 cell-derived anti-FGF-8 neutralizing CDR-grafted antibody, VH HV.0, VL LV.2-2 (SEQ ID NO. 47) (antibody, V domains shown)
VH: B4 VH
VL: DVVMTQSPLSLPVTPGEPASISCRSSQSLVHSNGRTYLEWYLQKPGQSPQLLIYKVSNRISGVPDRFSGSGSGTDFTLKISRVEAEDVGVYFCFQGSHVPYTFGQGTKVEIK
binding reaction [resonance signal (RU)] [2]: the lower binding reaction

B2: HV0LV0/CHO: CHO/DG44 cell-derived anti-FGF-8 neutralizing CDR-grafted antibody, VH HV.0, VL LV.0 (antibody, V domains shown)
VH: B4 VH
VL: B1 VL with V2I, F92Y
binding reaction [resonance signal (RU)] [2]: the lowest binding reaction
